Ends that are not written are not given here.

This data set has as its system B6SJL mice. The note with it: intravenous injection of pTG11236/peptide complexes, dead mice per group of five. How it is done: Indicated amounts of the luciferase expression plasmid pTG11236 were mixed with ppTG1 and /or pcTG90/DOPE. […] Muscles, tumors or organs were recovered at the indicated points of time, macerated and tested for luciferase activity with the luciferase assay kit from Promega.
After 20 min incubation at room temperature, the complexes were intravenously injected into B6SJL mice. Mice were sacrificed at day 1. The lungs were recovered, total protein was extracted and luciferase activity was analysed.
The potential of gene transfer with mono-component peptide vectors was investigated in vivo. […] Five mice per group were intravenously injected, the animals were sacrificed at day 1 after injection. Lungs were tested for luciferase activity.

Take GLFRALLRLLRSLWRLLLRA [ppTG20]: the toxicity result is “less toxic than ppTG1”.
